Reference: patent publication US20240390390A1, “NITRIC OXIDE RELEASING PROSTAMIDE AS NEUROPROTECTIVE AGENT” (Nicox SA, priority 2021, published 2024)

Assays:
[1] = tested on: subjects with open-angle glaucoma or ocular hypertension, non-study eyes with normal IOP; details: 0.024% once daily in the evening up to 12 months, cited from earlier work
[2] = tested on: ischemia/reperfusion injury of the optic nerve induced by endothelin-1 (ET-1) in rabbits; experiment: Ophthalmic artery resistive index (OA-RI) by ecocolor Doppler in ET-1 ischemia/reperfusion rabbit model; format: in vivo, New Zealand white (NZW) rabbits; set-up: key: Pourcelot resistive index = (PSV−EDV)/PSV; details: for Ophthalmic artery resistive index (OA-RI), Baseline: prior to ET-1 dosing and prior to test item
Experimental: (§1) This series of experiments were performed to determine the effect of Compound (I) on ocular vascular reactivity i.e. ophthalmic artery resistive index (OA-RI) and, consequently, on retinal function after repeated ocular topical dosing in a well-defined model of ischemia/reperfusion injury of the optic nerve induced by the retrobulbar injection of endothelin-1 (ET-1) in rabbits.
(§2) Adult male New Zealand white (NZW) rabbits weighting 1.5-2.0 kg were used. The animals were kept in individual cages, food and water were provided ad libitum. The ischaemia/reperfusion lesion of the optic nerve was obtained by subtenonian injection twice a week with 500 μL of 250 nM ET-1 (Fluka, Israel) in water using a lacrimal cannula under anesthesia produced by ketamine (20 mg/kg, Lobotor, ACME, 100 mg/ml) and xilazine (5 mg/kg, Sedaxylan 2%, Dechra Veterinary Products S.r.l) intramuscularly. Animals were treated with ET-1 for 6 weeks. Compound (I) 0.1% (1 mg/mL) solution or vehicle were administered as eye drop (30 μL/eye), twice a day (around 10:00 AM and 4:00 PM) starting 2 weeks after ET-1 first dosing until the end of the experiment.
Ophthalmic Artery Resistive Index (OA-RI) was estimated using an ecocolor Doppler DynaView™ II SSD-1700 (Aloka Holding Europe AG, Milan, Italy) prior to ET-1 treatment (baseline, time 0), and weekly thereafter until the end of the study. From week 2 to week 4, morning dosing with test article or vehicle were omitted on the day of hemodynamic measurements in order to have virtually drug-free conditions (16-18 h post last dose) at the time of testing. Pourcelot resistive index for ophthalmic artery (OA-RI) was calculated as following: (PSV−EDV)/PSV where PSV and EDV refer to Peak Systolic Velocity and End Diastolic Velocity, respectively.

[3] = tested on: patients with open-angle glaucoma or ocular hypertension; experiment: Phase 2 clinical trial, reduction of elevated intraocular pressure (IOP); format: in vivo, human
Experimental: The efficacy of Compound (I) for the reduction of elevated intraocular pressure (IOP) was evaluated in a Phase 2 clinical trial conducted in 433 patients with open-angle glaucoma or ocular hypertension, treated once daily for 27 days.

[4] = tested on: ischemia/reperfusion injury of the optic nerve induced by endothelin-1 (ET-1) in rabbits; experiment: Electroretinogram (ERG) in ET-1 ischemia/reperfusion rabbit model; format: in vivo, New Zealand white (NZW) rabbits
Experimental: as §1, §2
Electroretinogram (ERG). Topical anesthesia was applied using one drop […] oxybuprocaine hydrochloride, 4 mg/ml. The eyes were then dilated by topical application of tropicamide 1% and, when needed, adapted to darkness for at least 2 hours prior to standard ERGs recording in both eyes using contact lens corneal electrodes so to have sufficiently stable and amplified recordings. The ERG signals [(amplitude, microvolts (μV)] were recorded using Retimax (CSO, Florence, Italy) and according to the current International Society for Clinical Electrophysiology (ISCEV) indications; specifically, the dark-adapted 0.01 ERG (rod response), dark-adapted 3.0 ERG (combined rod-cone response) and, light-adapted 3.0 (cone response) were recorded. Flashes intensity varied: • a) from 0.01 photopic cd·s·m^−2 to 0.025 scotopic candela-seconds per meter squared (cd·s·m^−2) with a minimum interval between flashes of 2 s for the dark-adapted 0.01 ERG; • b) from 3.0 photopic cd·s·m^−2 to 7.5 scotopic cd·s·m^−2 with a minimum interval between flashes of 10 s for the dark-adopted 3.0 ERG • c) from 3.0 photopic cd·s·m^−2 to 7.5 scotopic cd·s·m^−2 with a minimum interval between flashes of 0.5 s and a light adaptation strength of 30 cd·s·m^−2 for the light-adopted 3.0 ERG. In all cases ERG recordings lasted 250 ms. […].
Measurements were taken prior ET-1 first dose (baseline, time 0) and then at the end of week-2 (prior to vehicle- or Compound (I) first day-first dose) and at the end of week-6 (36 h after vehicle or Compound (I)-last day-last dose).

[5] = 0.1% solution, 30 μL/eye eye drop bid
[6] = 0.1% solution, 30 μL/eye eye drop bid, listed as Cpd (1)
[7] = 0.1% solution, 30 μL/eye bid, 36 h after last dose, ± S.E.M
[8] = after 2 weeks ET-1, prior to first dose of test item, ± S.E.M
[9] = prior to ET-1 and test item, ± S.E.M

In the case of `O=C(CCC/C=C\C[C@@H]1[C@@H](CC[C@@H](O)CCc2ccccc2)[C@H](O)C[C@@H]1O)OCCCCO[N+](=O)[O-]` [Latanoprostene Bunod], the “IOP lowering from baseline, Japanese population” value ([1]; fellow eyes with baseline IOP ≤19 mmHg) is given as 3.2-3.9 mmHg and the “IOP lowering from baseline, Caucasian population” value ([1]; fellow eyes with baseline IOP ≤21 mmHg) is given as 4.2-4.9 mmHg.

For `CCNC(=O)CCC/C=C\C[C@@H]1[C@@H](/C=C/[C@H](CCc2ccccc2)OC(=O)CCCCCO[N+](=O)[O-])[C@H](O)C[C@@H]1O` [Compound (I), Hexanoic acid, 6-(nitrooxy)-, (1S,2E)-3-[(1R,2R,3S,5R)-2-[(2Z)-7-(ethylamino)-7-oxo-2-hepten-1-yl]-3,5-dihydroxycyclopentyl]-1-(2-phenylethyl)-2-propen-1-yl ester], the “Ophthalmic artery resistive index (OA-RI), ET-1 (3-weeks) + Test items (1 week daily bid)” value [2, 5] was 0.35 ± 0.03, the “Ophthalmic artery resistive index (OA-RI), ET-1 (4-weeks) + Test items (2 weeks daily bid)” value [2, 5] was 0.32 ± 0.03 and the “Ophthalmic artery resistive index (OA-RI), ET-1 (5 weeks) + Test items (3 weeks daily bid)” value [2, 5] was 0.32±0.03. For the same compound, the “Ophthalmic artery resistive index (OA-RI), ET-1 (6 weeks) + Test items (4 weeks daily bid)” value [2, 5] was 0.33±0.02, the “Ophthalmic artery resistive index (OA-RI), ET-1 (5 weeks) + Test items (3 weeks daily bid)” value [2, 6] was 0.32 ± 0.03 and the “Ophthalmic artery resistive index (OA-RI), ET-1 (6 weeks) + Test items (4 weeks daily bid)” value [2, 6] was 0.33 ± 0.02. The “Ophthalmic artery resistive index (OA-RI), ET-1 (2 weeks)” value ([2]; after 2 weeks ET-1, prior to first dose of test item) was 0.36 ± 0.03, the “Ophthalmic artery resistive index (OA-RI), Baseline” value [2] was 0.30±0.02 and the “Ophthalmic artery resistive index (OA-RI), Baseline” value ([2]; listed as Cpd (1)) was 0.30 ± 0.02. For the same compound, the “Conjunctival hyperemia, treated patients” value ([3]; Phase 2, highest dose tested) was 16.8%, the Tolerability ([3]; Phase 2, once daily for 27 days) was “well tolerated” and the “ERG Amplitude, Dark adapted 0.01 (Rod response), ET-1 (6 weeks) + Test items (4 weeks daily bid)” value [4, 7] was 44.3 ± 4.5 μV. The “ERG Amplitude, Dark adapted 3.0 (Rod/cone response), ET-1 (6 weeks) + Test items (4 weeks daily bid)” value [4, 7] was 122.8 ± 11.4 μV, the “ERG Amplitude, Light adapted 3.0 (cone response), ET-1 (6 weeks) + Test items (4 weeks daily bid)” value [4, 7] was 64.2 ± 6.8 μV and the “ERG Amplitude, Dark adapted 0.01 (Rod response), ET-1 (2 weeks)” value [4, 8] was 37.6 ± 6.2 μV. The “ERG Amplitude, Dark adapted 3.0 (Rod/cone response), ET-1 (2 weeks)” value [4, 8] was 96.6 ± 9.4 μV, the “ERG Amplitude, Light adapted 3.0 (cone response), ET-1 (2 weeks)” value [4, 8] was 60.2 ± 4.3 μV and the “Impairment in the ERG wave amplitude versus vehicle” value ([4]; eyes treated for 4 weeks, dark-adapted 0.01, dark-adapted 3.0 and Light-adapted 3.0) was “significantly (p<0.05) less impairment”. For the same compound, the “ERG Amplitude, Dark adapted 0.01 (Rod response), Baseline” value [4, 9] was 42.3 ± 6.9 μV, the “ERG Amplitude, Dark adapted 3.0 (Rod/cone response), Baseline” value [4, 9] was 118.0 ± 10.3 μV and the “ERG Amplitude, Light adapted 3.0 (cone response), Baseline” value [4, 9] was 67.6 ± 6.4 μV.
